Tests used:
Escherichia coli [1] = test: Antimicrobial activity against Escherichia coli ATCC 25922 after 24 hrs by disc diffusion method; type: functional; conditions: ATCC 25922, 24 h
Aspergillus flavus [2] = test: Antifungal activity against Aspergillus flavus NCIM 524 after 3 to 4 days; type: functional
Aspergillus fumigatus = test: Antifungal activity against Aspergillus fumigatus NCIM 902 after 3 to 4 days; type: functional
[3] = test system: Trichophyton mentagrophytes; test: Antifungal activity against Trichophyton mentagrophytes after 3 to 4 days; type: functional
Pseudomonas aeruginosa [4] = test: Antimicrobial activity against Pseudomonas aeruginosa ATCC 27853 after 24 hrs by disc diffusion method; type: functional; conditions: ATCC 27853, 24 h
Staphylococcus aureus [5] = test: Antimicrobial activity against Staphylococcus aureus ATCC 25923 after 24 hrs by disc diffusion method; type: functional; conditions: ATCC 25923, 24 h
Talaromyces marneffei = test: Antifungal activity against Penicillium marneffei after 3 to 4 days; type: functional
Klebsiella pneumoniae [6] = test: Antimicrobial activity against Klebsiella pneumoniae after 24 hrs by disc diffusion method; type: functional
Aspergillus niger [7] = test: Antifungal activity against Aspergillus niger; type: functional
Fusarium oxysporum = test: Antifungal activity against Fusarium oxysporum; type: functional
Aspergillus flavus [8] = test: Antifungal activity against Aspergillus flavus; type: functional
Lactococcus lactis = test: Antimicrobial activity against Streptococcus lactis assessed as zone of inhibition at 10 ug/ml; type: functional; conditions: read-out: IZ
Streptomyces = test: Antimicrobial activity against Streptomyces assessed as zone of inhibition at 10 ug/ml; type: functional; conditions: read-out: IZ
Aspergillus niger [9] = test: Antifungal activity against Aspergillus niger assessed as zone of inhibition at 10 ug/ml; type: functional; conditions: read-out: IZ
Penicillium = test: Antifungal activity against Penicillium assessed as zone of inhibition at 10 ug/ml; type: functional; conditions: read-out: IZ
Pseudomonas = test: Antimicrobial activity against Pseudomonas assessed as zone of inhibition at 10 ug/ml; type: functional; conditions: read-out: IZ
Candida albicans [10] = test: Antifungal activity against Candida albicans assessed as zone of inhibition at 10 ug/ml; type: functional; conditions: read-out: IZ
Escherichia coli [11] = test: Antimicrobial activity against Escherichia coli assessed as zone of inhibition at 10 ug/ml; type: functional; conditions: read-out: IZ
Bacillus subtilis [12] = test: Antimicrobial activity against Bacillus subtilis assessed as zone of inhibition at 10 ug/ml; type: functional; conditions: read-out: IZ
[13] = Antifungal activity against Rhodotorula ingeniosa assessed as zone of inhibition at 10 ug/ml; type: functional; conditions: Sampaiozyma ingeniosa; read-out: IZ
Escherichia coli [14] = test: Antimicrobial activity against Escherichia coli assessed as zone of inhibition at 5 mg/ml; type: functional; conditions: read-out: IZ
Klebsiella pneumoniae [15] = test: Antimicrobial activity against Klebsiella pneumoniae assessed as zone of inhibition at 5 mg/ml; type: functional; conditions: read-out: IZ
Staphylococcus aureus [16] = test: Antimicrobial activity against Staphylococcus aureus assessed as zone of inhibition at 5 mg/ml; type: functional; conditions: read-out: IZ
Pseudomonas aeruginosa [17] = test: Antimicrobial activity against Pseudomonas aeruginosa assessed as zone of inhibition at 5 mg/ml; type: functional; conditions: read-out: IZ
Escherichia coli [18] = test: Antimicrobial activity against Escherichia coli assessed as zone of inhibition at 250 ug/ml; type: functional; conditions: read-out: IZ
Pseudomonas aeruginosa [19] = test: Antimicrobial activity against Pseudomonas aeruginosa assessed as zone of inhibition at 250 ug/ml; type: functional; conditions: read-out: IZ
Candida albicans [20] = test: Antifungal activity against Candida albicans; type: functional
Escherichia coli [21] = test: Antimicrobial activity against Escherichia coli assessed as zone of inhibition at 250 ug/ml after 24 hrs by disk diffusion method; type: functional; conditions: read-out: IZ
Escherichia coli [22] = test: Antimicrobial activity against Escherichia coli; type: functional
Staphylococcus aureus [23] = test: Antimicrobial activity against Staphylococcus aureus assessed as zone of inhibition at 250 ug/ml; type: functional; conditions: read-out: IZ
Staphylococcus aureus [24] = test: Antimicrobial activity against Staphylococcus aureus; type: functional
Bacillus cereus [25] = test: Antimicrobial activity against Bacillus cereus; type: functional
Aspergillus niger [26] = test: Antifungal activity against Aspergillus niger assessed as zone of inhibition at 250 ug/ml; type: functional; conditions: read-out: IZ
Bacillus cereus [27] = test: Antimicrobial activity against Bacillus cereus assessed as zone of inhibition at 250 ug/ml; type: functional; conditions: read-out: IZ
Pseudomonas aeruginosa [28] = test: Antimicrobial activity against Pseudomonas aeruginosa; type: functional
Candida albicans [29] = test: Antifungal activity against Candida albicans assessed as zone of inhibition at 250 ug/ml; type: functional; conditions: read-out: IZ
Prescottella equi = test: Antimicrobial activity against Rhodococcus equi; type: functional; conditions: Rhodococcus (subgen. Prescottella) equi
Proteus mirabilis = test: Antimicrobial activity against Proteus mirabilis; type: functional
Proteus vulgaris = test: Antimicrobial activity against Proteus vulgaris; type: functional
Bacillus thuringiensis = test: Antimicrobial activity against Bacillus thuringiensis; type: functional
Bacillus subtilis [30] = test: Antimicrobial activity against Bacillus subtilis; type: functional
Streptococcus pneumoniae = test: Antimicrobial activity against Streptococcus pneumoniae; type: functional
Salmonella typhimurium = test: Antimicrobial activity against Salmonella typhimurium; type: functional, Salmonella enterica subsp. enterica serovar Typhimurium; conditions: Salmonella enterica
Candida albicans [31] = test: Antifungal activity against Candida albicans ATCC 76615 after 24 hrs; type: functional; conditions: ATCC 76615, 24 h
Aspergillus flavus [32] = test: Antifungal activity against Aspergillus flavus after 24 hrs; type: functional
Bacillus subtilis [33] = test: Antibacterial activity against Bacillus subtilis ATCC 21216 after 24 hrs by two-fold broth serial dilution method; type: functional; conditions: ATCC 21216, 24 h
Pseudomonas aeruginosa [34] = test: Antimicrobial activity against Pseudomonas aeruginosa ATCC 27853 after 24 hrs by two-fold broth serial dilution method; type: functional; conditions: ATCC 27853, 24 h
Pichia norvegensis = test: Antifungal activity against Candida mycoderma after 24 hrs; type: functional
Cyberlindnera jadinii = test: Antifungal activity against Candida utilis after 24 hrs; type: functional; conditions: Williopsis jadinii
Micrococcus luteus = test: Antibacterial activity against Micrococcus luteus ATCC 4698 after 24 hrs by two-fold broth serial dilution method; type: functional; conditions: ATCC 4698, 24 h
Saccharomyces cerevisiae = test: Antifungal activity against Saccharomyces cerevisiae after 24 hrs; type: functional
Escherichia coli [35] = test: Antimicrobial activity against Escherichia coli JM 109 after 24 hrs by two-fold broth serial dilution method; type: functional; conditions: JM 109, 24 h
Shigella dysenteriae = test: Antimicrobial activity against Shigella dysenteriae after 24 hrs by two-fold broth serial dilution method; type: functional
Staphylococcus aureus [36] = test: Antibacterial activity against methicillin resistant Staphylococcus aureus N315 after 24 hrs by two-fold broth serial dilution method; type: functional; conditions: N315, 24 h

CCn1nnnc1SCCCSc1nnnn1-c1ccccc1
6.25 to 50 µg/mL: MIC (Escherichia coli [1]) | MIC (Aspergillus flavus [2]) | MIC (Aspergillus fumigatus) | MIC [3] | MIC (Pseudomonas aeruginosa [4]) | MIC (Staphylococcus aureus [5]) | MIC (Talaromyces marneffei) | MIC (Klebsiella pneumoniae [6])

Clc1ccc(-n2cc(-c3nnn[nH]3)nn2)cc1
100 µg/mL: MIC (Aspergillus niger [7]) | MIC (Fusarium oxysporum) | MIC (Aspergillus flavus [8])

c1ccc2c(c1)nnn2Cc1nnn[nH]1
11 to 16 mm: zone of inhibition at 10 µg/mL (Lactococcus lactis) | zone of inhibition at 10 µg/mL (Streptomyces) | zone of inhibition at 10 µg/mL (Aspergillus niger [9]) | zone of inhibition at 10 µg/mL (Penicillium) | zone of inhibition at 10 µg/mL (Pseudomonas) | zone of inhibition at 10 µg/mL (Candida albicans [10]) | zone of inhibition at 10 µg/mL (Escherichia coli [11]) | zone of inhibition at 10 µg/mL (Bacillus subtilis [12]) | zone of inhibition at 10 µg/mL [13]

c1ccc(-n2cc(-c3nnn[nH]3)nn2)cc1
100 µg/mL: MIC (Aspergillus niger [7]) | MIC (Fusarium oxysporum) | MIC (Aspergillus flavus [8])

Cc1ccc2nc(C)c(Cn3cc(CSc4nnnn4-c4ccccc4)nn3)cc2c1
11 to 19 mm: zone of inhibition at 5000 µg/mL (Escherichia coli [14]) | zone of inhibition at 5000 µg/mL (Klebsiella pneumoniae [15]) | zone of inhibition at 5000 µg/mL (Staphylococcus aureus [16]) | zone of inhibition at 5000 µg/mL (Pseudomonas aeruginosa [17])

O=[N+]([O-])c1ccc(-c2nnnn2-c2nc3ccccc3s2)cc1
16 to 26 mm: zone of inhibition at 250 µg/mL (Escherichia coli [18]) | zone of inhibition at 250 µg/mL (Pseudomonas aeruginosa [19]) | zone of inhibition at 250 µg/mL (Staphylococcus aureus [23]) | zone of inhibition at 250 µg/mL (Aspergillus niger [26]) | zone of inhibition at 250 µg/mL (Bacillus cereus [27]) | zone of inhibition at 250 µg/mL (Candida albicans [29])
18 to 26 mm: zone of inhibition at 250 µg/mL (Escherichia coli [21])
50 to 100 µg/mL: MIC (Candida albicans [20]) | MIC (Escherichia coli [22]) | MIC (Aspergillus niger [7]) | MIC (Staphylococcus aureus [24]) | MIC (Bacillus cereus [25]) | MIC (Pseudomonas aeruginosa [28])

Cc1nnc(SCC2=C(C(=O)O)N3C(=O)[C@@H](NC(=O)Cn4cnnn4)[C@H]3SC2)s1 [CEFAZOLIN]
0.063 to 8 µg/mL: MIC (Prescottella equi) | MIC (Proteus mirabilis) | MIC (Proteus vulgaris) | MIC (Bacillus thuringiensis) | MIC (Bacillus subtilis [30]) | MIC (Streptococcus pneumoniae) | MIC (Salmonella typhimurium)

O=[N+]([O-])c1cccc(-c2nnnn2-c2nc3ccccc3s2)c1
16 to 26 mm: zone of inhibition at 250 µg/mL (Escherichia coli [18]) | zone of inhibition at 250 µg/mL (Pseudomonas aeruginosa [19]) | zone of inhibition at 250 µg/mL (Staphylococcus aureus [23]) | zone of inhibition at 250 µg/mL (Aspergillus niger [26]) | zone of inhibition at 250 µg/mL (Bacillus cereus [27]) | zone of inhibition at 250 µg/mL (Candida albicans [29])
50 to 100 µg/mL: MIC (Candida albicans [20]) | MIC (Escherichia coli [22]) | MIC (Aspergillus niger [7]) | MIC (Staphylococcus aureus [24]) | MIC (Bacillus cereus [25]) | MIC (Pseudomonas aeruginosa [28])
18 to 26 mm: zone of inhibition at 250 µg/mL (Escherichia coli [21])

Cc1nc2ccccc2cc1Cn1cc(CSc2nnnn2-c2ccccc2)nn1
11 to 19 mm: zone of inhibition at 5000 µg/mL (Escherichia coli [14]) | zone of inhibition at 5000 µg/mL (Klebsiella pneumoniae [15]) | zone of inhibition at 5000 µg/mL (Staphylococcus aureus [16]) | zone of inhibition at 5000 µg/mL (Pseudomonas aeruginosa [17])

Cc1cc(=O)oc2cc(OCC(O)Cn3nnnc3C)cc(OCC(O)Cn3nnnc3C)c12 (centres undefined)
32 to 512 µg/mL: MIC (Candida albicans [31]) | MIC (Aspergillus flavus [32]) | MIC (Bacillus subtilis [33]) | MIC (Pseudomonas aeruginosa [34]) | MIC (Pichia norvegensis) | MIC (Cyberlindnera jadinii) | MIC (Micrococcus luteus) | MIC (Saccharomyces cerevisiae) | MIC (Escherichia coli [35]) | MIC (Shigella dysenteriae) | MIC (Staphylococcus aureus [36])

Cc1ccc2cc(Cn3cc(CSc4nnnn4-c4ccccc4)nn3)c(C)nc2c1
11 to 19 mm: zone of inhibition at 5000 µg/mL (Escherichia coli [14]) | zone of inhibition at 5000 µg/mL (Klebsiella pneumoniae [15]) | zone of inhibition at 5000 µg/mL (Staphylococcus aureus [16]) | zone of inhibition at 5000 µg/mL (Pseudomonas aeruginosa [17])

OC[C@H]1O[C@H](n2nnnc2Cn2nnc3ccccc32)[C@H](O)[C@@H](O)[C@@H]1O
11 to 15 mm: zone of inhibition at 10 µg/mL (Lactococcus lactis) | zone of inhibition at 10 µg/mL (Streptomyces) | zone of inhibition at 10 µg/mL (Aspergillus niger [9]) | zone of inhibition at 10 µg/mL (Penicillium) | zone of inhibition at 10 µg/mL (Pseudomonas) | zone of inhibition at 10 µg/mL (Candida albicans [10]) | zone of inhibition at 10 µg/mL (Escherichia coli [11]) | zone of inhibition at 10 µg/mL (Bacillus subtilis [12]) | zone of inhibition at 10 µg/mL [13]

Cc1cc(=O)oc2cc(OCC(O)Cn3cnnn3)cc(OCC(O)Cn3cnnn3)c12 (centres undefined)
32 to 512 µg/mL: MIC (Candida albicans [31]) | MIC (Aspergillus flavus [32]) | MIC (Bacillus subtilis [33]) | MIC (Pseudomonas aeruginosa [34]) | MIC (Pichia norvegensis) | MIC (Cyberlindnera jadinii) | MIC (Micrococcus luteus) | MIC (Saccharomyces cerevisiae) | MIC (Escherichia coli [35]) | MIC (Shigella dysenteriae) | MIC (Staphylococcus aureus [36])

Source: ChEMBL document CHEMBL4342421, “Current scenario of tetrazole hybrids for antibacterial activity” (Eur J Med Chem, 2019)
